Measured values reported in ChEMBL document CHEMBL1909592, “Targeting the prostaglandin F2α receptor for preventing preterm labor with azapeptide tocolytics” (J Med Chem, 2011).
Active and inactive are the calls of the source. The rule behind the calls is not given here. Square brackets hold non-standard residues; d marks the D form. Peptide text beside a SMILES is read from it. * marks the point of attachment. dCit = NC(=O)NCCC[C@@H](N)C(=O)O; 3Pal = N[C@@H](Cc1cccnc1)C(=O)O; β3hF = N[C@H](CC(=O)O)Cc1ccccc1; PhAc = O=C(Cc1ccccc1)*; azaGly = NNC(=O)O

Columns and labels:
[1] = biological target: Prostaglandin F2-alpha receptor (Mus musculus) (UniProt P43117); assay: Antagonist activity at FP receptor in postpartum mouse myometrial strip assessed as inhibition of PGF-2alpha-induced uterine contractions; format: functional
Prostaglandin F2-alpha receptor (Mus musculus), sequence (P43117 whole entry): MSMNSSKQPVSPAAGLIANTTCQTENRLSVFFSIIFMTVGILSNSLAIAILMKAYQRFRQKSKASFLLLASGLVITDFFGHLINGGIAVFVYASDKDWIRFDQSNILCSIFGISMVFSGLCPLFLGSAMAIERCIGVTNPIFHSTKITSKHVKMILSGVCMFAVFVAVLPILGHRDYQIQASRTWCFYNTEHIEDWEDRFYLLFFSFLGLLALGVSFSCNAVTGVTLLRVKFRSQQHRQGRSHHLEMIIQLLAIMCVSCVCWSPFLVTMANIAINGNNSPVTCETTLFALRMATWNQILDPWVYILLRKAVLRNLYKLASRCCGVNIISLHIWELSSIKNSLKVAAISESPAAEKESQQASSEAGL

[2] = biological target: Prostaglandin F2-alpha receptor (Homo sapiens) (UniProt P43088); assay: Antagonist activity at human FP receptor expressed in HEK293 cells assessed as inhibition of PGF-2alpha-mediated cell ruffling at 1 uM after 30 mins by immunofluorescence assay (reference value: 65.7 +/- 1.6 %); format: functional, cell-based
Prostaglandin F2-alpha receptor (Homo sapiens), sequence (P43088 whole entry): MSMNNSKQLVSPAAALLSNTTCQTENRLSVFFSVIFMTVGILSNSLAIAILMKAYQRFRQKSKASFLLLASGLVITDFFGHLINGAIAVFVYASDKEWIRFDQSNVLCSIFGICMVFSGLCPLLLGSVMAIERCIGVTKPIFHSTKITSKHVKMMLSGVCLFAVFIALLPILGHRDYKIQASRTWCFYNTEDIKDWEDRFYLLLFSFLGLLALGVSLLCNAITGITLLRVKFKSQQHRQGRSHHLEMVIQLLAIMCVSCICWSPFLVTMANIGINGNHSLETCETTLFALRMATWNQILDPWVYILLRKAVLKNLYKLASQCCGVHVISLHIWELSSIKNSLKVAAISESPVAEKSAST

Mus musculus [3] = assay: Inhibition of PGF-2alpha-induced uterine contractions in pregnant CD-1 mouse assessed as time delay in preterm labor at 0.1 mg, ip administered as bolus dose immediately followed by 10 mg, sc; format: functional
Mus musculus [4] = assay: Inhibition of LPS-induced uterine contractions in pregnant CD-1 mouse assessed as time delay in preterm labor at 0.1 mg, ip administered as bolus dose immediately followed by 10 mg, sc; format: functional
[5] = biological target: Prostaglandin F2-alpha receptor (Homo sapiens) (UniProt P43088); assay: Antagonist activity at human FP receptor expressed in HEK293 cells assessed as potentiation of PGF-2alpha-induced Galphaq-mediated PKC/ERK1/2 activation at 1 uM after 30 mins by Western blot analysis; format: functional, cell-based
[6] = biological target: Prostaglandin F2-alpha receptor (Homo sapiens) (UniProt P43088); assay: Antagonist activity at human FP receptor expressed in HEK293 cells assessed as ERK1/2 activation at 1 uM after 30 mins by Western blot analysis; format: functional, cell-based
[7] = biological target: Prostaglandin F2-alpha receptor (Homo sapiens) (UniProt P43088); assay: Antagonist activity at human FP receptor expressed in HEK293 cells assessed as inhibition of cell ruffling at 1 uM after 30 mins by immunofluorescence assay; format: functional, cell-based
[8] = biological target: Prostaglandin F2-alpha receptor (Ovis aries) (UniProt Q28905); conditions: 100 uM
Prostaglandin F2-alpha receptor (Ovis aries), sequence (Q28905 whole entry): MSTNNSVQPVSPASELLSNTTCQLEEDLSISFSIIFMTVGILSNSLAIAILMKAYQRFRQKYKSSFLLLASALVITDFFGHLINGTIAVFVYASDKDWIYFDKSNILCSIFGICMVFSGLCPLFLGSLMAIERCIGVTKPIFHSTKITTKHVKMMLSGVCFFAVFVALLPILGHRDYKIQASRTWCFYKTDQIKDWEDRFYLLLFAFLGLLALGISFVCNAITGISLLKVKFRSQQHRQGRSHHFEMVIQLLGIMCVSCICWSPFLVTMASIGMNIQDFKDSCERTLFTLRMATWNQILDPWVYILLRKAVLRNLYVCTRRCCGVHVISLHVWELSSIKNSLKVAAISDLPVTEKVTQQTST
Description: Antagonist activity at FP receptor in sheep myometrial strip assessed as inhibition of PGF-2alpha-induced contractions at 100 uM

[9] = biological target: Prostaglandin F2-alpha receptor (Bos taurus) (UniProt P37289); conditions: 100 uM
Prostaglandin F2-alpha receptor (Bos taurus), sequence (P37289 whole entry): as the sequence (Q28905 whole entry) above, with N5S, V7I, A13E, Q192E, N340D counted along it
Description: Antagonist activity at FP receptor in bovine myometrial strip assessed as inhibition of PGF-2alpha-induced contractions at 100 uM

[10] = biological target: Prostaglandin F2-alpha receptor (Bos taurus, UniProt P37289); assay: Antagonist activity at FP receptor in bovine myometrial strip assessed as inhibition of PGF-2alpha-induced contractions; format: functional
Prostaglandin F2-alpha receptor (Bos taurus, UniProt P37289), sequence (P37289 whole entry): as the sequence (Q28905 whole entry) above, with N5S, V7I, A13E, Q192E, N340D counted along it

[11] = biological target: Prostaglandin F2-alpha receptor (Ovis aries, UniProt Q28905); assay: Antagonist activity at FP receptor in sheep myometrial strip assessed as inhibition of PGF-2alpha-induced contractions; format: functional
Prostaglandin F2-alpha receptor (Ovis aries, UniProt Q28905), sequence (Q28905 whole entry): as the sequence (Q28905 whole entry) above

[12] = biological target: Prostaglandin F2-alpha receptor (Mus musculus, UniProt P43117); assay: Antagonist activity at FP receptor in mouse myometrial strip assessed as inhibition of PGF-2alpha-induced contractions; format: functional
Prostaglandin F2-alpha receptor (Mus musculus, UniProt P43117), sequence (P43117 whole entry): as the sequence (P43117 whole entry) above

[13] = biological target: Prostaglandin F2-alpha receptor (Mus musculus) (UniProt P43117); conditions: 100 uM
Description: Antagonist activity at FP receptor in mouse myometrial strip assessed as inhibition of PGF-2alpha-induced contractions at 100 uM

Mus musculus [14] = species: Mus musculus; assay: Inhibition of PGF-2alpha-induced uterine contractions in pregnant mouse assessed as time delay in preterm labor at 0.8 mg/day; format: functional
[15] = Antagonist activity at FP receptor in pig retina assessed as inhibition of PGF-2alpha induced microvascular contraction at 100 uM; format: functional; conditions: Sus scrofa
[16] = Antagonist activity at FP receptor in pig retina assessed as inhibition of PGF-2alpha induced microvascular contraction; format: functional, tissue-based, Sus scrofa

Row | Structure (SMILES) | inhibition [1] | inhibition [2] | Activity [5] | further results
1 | NC(=O)NCCC[C@H](NC(=O)[C@H]1CC[C@H]2CC[C@@H](NC(=O)Cc3ccccc3)C(=O)N21)C(=O)N[C@H](CC(=O)O)Cc1ccccc1 | inactive | – | – | –
2 | O=C(O)C[C@H](Cc1ccccc1)NC(=O)[C@H](Cc1cccnc1)NC(=O)[C@@H]1CCC[C@@H]2C[C@H](NC(=O)Cc3ccccc3)C(=O)N21 | inactive | – | – | –
3 | CN(NC(=O)Cc1ccccc1)C(=O)N1CCC[C@H]1C(=O)N[C@@H](Cc1cccnc1)C(=O)N[C@H](CC(=O)O)Cc1ccccc1 | inactive | – | – | –
4 | CC[C@@H](C)[C@@H](N)C(=O)N[C@H](CC(C)C)C(=O)NCC(=O)N[C@H](Cc1cnc[nH]1)C(=O)N[C@H](CCCNC(N)=O)C(=O)N[C@H](CC(=O)O)C(=O)N[C@H](Cc1ccc(O)cc1)C(=O)N[C@H](CCCCN)C(=O)O (H-[dI][dL]G[dH][dCit][dD][dY][dK]-OH) | – | – | – | inhibition [8]: > 85%; inhibition [9]: > 85%; IC50 [10]: 13 nM; IC50 [11]: 13 nM; IC50 [12]: 13 nM; inhibition [13]: > 85%; Time (Mus musculus [14]): 48 h
5 | NC(=O)NCCC[C@@H](NC(=O)[C@H]1CC[C@H]2CC[C@@H](NC(=O)Cc3ccccc3)C(=O)N21)C(=O)N[C@@H](CC(=O)O)Cc1ccccc1 | inactive | – | – | –
6 | CC[C@@H](C)[C@@H](N)C(=O)N[C@H](CC(C)C)C(=O)NCC(=O)N[C@H](Cc1cnc[nH]1)C(=O)N[C@H](CCCNC(=N)N)C(=O)N[C@H](CC(=O)O)C(=O)N[C@H](Cc1ccc(O)cc1)C(=O)N[C@H](CCCCN)C(=O)O (H-[dI][dL]G[dH][dR][dD][dY][dK]-OH) | – | – | – | inhibition at 100 µM [15]: > 80%; IC50 [16]: 340 nM

Second part, led by results:

Row | inhibition [1] | inhibition [2] | Activity [5] | Structure (SMILES) | further results
7 | inactive | – | – | C=CCN(NC(=O)Cc1ccccc1)C(=O)N1CCC[C@H]1C(=O)N[C@@H](Cc1cccnc1)C(=O)N[C@H](CC(=O)O)Cc1ccccc1 | –
8 | Active | 40.3% | Active | O=C(O)C[C@H](Cc1ccccc1)NC(=O)[C@H](Cc1cccnc1)NC(=O)[C@@H]1CC[C@@H]2CC[C@H](NC(=O)Cc3ccccc3)C(=O)N21 | Time (Mus musculus [3]): 42 h; Time (Mus musculus [4]): 28 h
9 | Active | 37.4% | Active | O=C(O)C[C@H](Cc1ccccc1)NC(=O)[C@H](Cc1cccnc1)NC(=O)[C@@H]1CCCN1C(=O)N(Cc1ccccc1)NC(=O)Cc1ccccc1 | Activity [6]: inactive; inhibition [7]: inactive
10 | inactive | – | – | O=C(O)C[C@H](Cc1ccccc1)NC(=O)[C@H](Cc1cccnc1)NC(=O)[C@@H]1CCC[C@@H]2CC[C@H](NC(=O)Cc3ccccc3)C(=O)N21 | –
11 | Active | 37.5% | Active | O=C(O)C[C@H](Cc1ccccc1)NC(=O)[C@H](Cc1cccnc1)NC(=O)[C@@H]1CCCN1C(=O)NNC(=O)Cc1ccccc1 (PhAc-[azaGly]P[3Pal][β3hF]-OH) | Activity [6]: inactive; inhibition [7]: inactive
12 | Active | 56.7% | Active | C#CCN(NC(=O)Cc1ccccc1)C(=O)N1CCC[C@H]1C(=O)N[C@@H](Cc1cccnc1)C(=O)N[C@H](CC(=O)O)Cc1ccccc1 | Activity [6]: inactive; inhibition [7]: inactive
